Series [1] is described as follows: Determination of stability against human liver microsomes. The settings on record: human liver microsomes 1 mg protein/mL, 2 mM NADPH, pH 7.4, 37 C; read-out: Stability against human liver microsome NADPH+ T1/2. The format is in vitro ADME. The protocol:
The enzyme reaction was quenched with three volumes of acetonitrile, and the reaction mixture was centrifuged at 1,500 rpm for ten minutes to provide a supernatant as a sample to be measured. Stability against human liver microsomes was measured using HPLC/MS to determine the compounds in the sample.

Series [2] is described as follows: Determination of stability against mouse liver microsomes. Format: in vitro ADME. The settings on record: mouse liver microsomes 1 mg protein/mL, 2 mM NADPH, pH 7.4, 37 C; read-out: Stability against mouse liver microsome NADPH+ T1/2. How it is done:
The enzyme reaction was quenched with three volumes of acetonitrile, and the reaction mixture was centrifuged at 1,500 rpm for ten minutes to provide a supernatant as a sample to be measured. Stability against mouse liver microsomes was measured using HPLC/MS to determine the compounds in the sample.

Series [3] relates to Human colon cancer cell line HT-29. The series can be described thus: Determination of the activity of inhibiting cell proliferation (Cell Counting Kit-8). Format: cell-based. The conditions noted are these: HT-29, 96 h, HT29, 2,000 cells/well, incubated four days, read-out: Cell proliferation inhibitory activity (HT29) IC50. How it is done: Human colon cancer cell line HT-29, obtained from American Type Culture Collection (VA, USA), and human non-small cell lung cancer cell line QG56, obtained from Immuno-Biological Laboratories Co., Ltd., were plated at 2,000 cells/well in a 96-well culture plate, and incubated for four days after addition of a MEK inhibitor of a given concentration.

Series [4] in a line: Determination of water solubility (equilibrium stirring method). Format: physicochemical. The settings on record: for solubility at 2 h: aqueous buffer, thermodynamic from solid, read-out: Water solubility (LySA PH 6.5). The protocol:
The vessels were sealed, and the contents were sonicated at room temperature (20° C.) for ten minutes, and then stirred with a stirrer for two hours. After reaching solution equilibrium, the solution was separated with a membrane filter, and the solute concentration was determined using HPLC.

In the next series the target is MEK (Homo sapiens, UniProt Q02750). As to the kind of experiment: Determination of MEK inhibitory activities (Raf-1 kinase cascade assay, MBP phosphorylation, 33P-ATP).
The conditions of series [5]: phase I clinical trials; cited from earlier work.
The mark [6] stands for this setting: 50 mM phosphate buffer pH 6.5, room temperature (20 C).

These results are taken from patent US8084645B2, “4-phenylamino-benzaldoxime derivatives and uses thereof as mitogen-activated protein kinase kinase (MEK) inhibitors” (Chugai Seiyaku Kabushiki Kaisha, priority 2003, dated 2011).

Values after ≈ are worked out from the molar mass of the structure shown. Like-named read-outs stand apart in the source and are kept apart here.

MEK, sequence (Q02750 whole entry): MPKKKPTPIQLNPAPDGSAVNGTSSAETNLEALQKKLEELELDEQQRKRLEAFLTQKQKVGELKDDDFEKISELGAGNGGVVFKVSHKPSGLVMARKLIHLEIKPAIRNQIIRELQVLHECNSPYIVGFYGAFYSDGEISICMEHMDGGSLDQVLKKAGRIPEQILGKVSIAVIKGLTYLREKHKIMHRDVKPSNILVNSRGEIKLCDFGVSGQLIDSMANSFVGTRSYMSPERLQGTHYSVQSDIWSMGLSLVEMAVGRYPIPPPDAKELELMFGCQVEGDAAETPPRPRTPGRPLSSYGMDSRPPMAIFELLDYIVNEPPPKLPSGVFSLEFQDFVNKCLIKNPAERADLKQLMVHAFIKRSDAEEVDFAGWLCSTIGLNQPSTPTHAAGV
Text for MEK: The radioisotope used was [γ^33P]-ATP (Amersham Biosciences, K.K.).

As to `O=C(NOCCO)c1cc(/C=N/OCC(O)CO)c(F)c(F)c1Nc1ccc(I)cc1F` (racemic) [Compound 7, (E)-dl-5-[(2,3-Dihydroxy-propoxyimino)-methyl]-3,4-difluoro-2-(2-fluoro-4-iodo-phenylamino)-N-(2-hydroxy-ethoxy)-benzamide], the half-life in series [1] is 1.51 h; in series [2], above 6 h. For the same compound, the IC50 in series [3] was 37 nM; at MEK, 33 nM. Further, the solubility at 2 h in series [4] (phosphate buffer, 20 °C, at pH 6.67) is 162 µM (≈ 92.2 µg/mL).

Consider `O=C(CO/N=C\c1cc(C(=O)NOCCO)c(Nc2ccc(I)cc2F)c(F)c1F)NCCO` [Compound 57, (Z)-3,4-Difluoro-2-(2-fluoro-4-iodo-phenylamino)-N-(2-hydroxy-ethoxy)-5-{[(2-hydroxyethylcarbamoyl)-methoxyimino]-methyl}-benzamide], for which the half-life in series [1] and in series [2] was above 6 h each time. Moreover, the IC50 was 27 nM in series [3] and 19 nM against MEK. Moreover, the solubility at 2 h in series [4] (setting [6]) amounted to 224 µM (≈ 134 µg/mL).

Take `O=C(NOCCO)c1cc(/C=N/OCCO)c(F)c(F)c1Nc1ccc(I)cc1F` [Compound 1, (E)-3,4-difluoro-2-(2-fluoro-4-iodo-phenylamino)-N-(2-hydroxy-ethoxy)-5-[(2-hydroxy-ethoxyimino)-methyl]-benzamide]: the values for the half-life in series [1] and in series [2] were 1.08 h and 3.94 h, respectively. Besides, the IC50 in series [3] was 80 nM; at MEK, 100 nM. Also, in series [4] (setting [6]), the “Water solubility (LySA PH 6.5)” value amounted to 8.3 µM.

As to `O=C(NOCCO)c1cc(/C=N/OCCN2CCOCC2)c(F)c(F)c1Nc1ccc(I)cc1F` [Compound 18, (E)-3,4-difluoro-2-(2-fluoro-4-iodo-phenylamino)-N-(2-hydroxy-ethoxy)-5-[(2-morpholin-4-yl-ethoxyimino)-methyl]-benzamide], the half-life in series [1] and in series [2] was above 6 h each time. Moreover, the IC50 is 140 nM in series [3] and 262 nM on MEK. Moreover, in series [4] (setting [6]), the solubility at 2 h was found to be 164 µM (≈ 99.8 µg/mL).

On to `CNC(=O)CCCO/N=C\c1cc(C(=O)NOCCO)c(Nc2ccc(I)cc2F)c(F)c1F` [Compound 55], for which the values for the half-life in series [1] and in series [2] were 1.62 h and above 6 h, respectively. Besides, the IC50 in series [3] is 4.6 nM; on MEK, 37 nM. Moreover, the solubility at 2 h in series [4] (setting [6]) amounted to 12 µM (≈ 7.13 µg/mL).

Take `O=C(NOCCO)c1cc(/C=N\OCC(O)CO)c(F)c(F)c1Nc1ccc(I)cc1F` (stereo not drawn) [Compound 52, (dl)-(Z)-5-[(2,3-Dihydroxy-propoxyimino)-methyl]-3,4-difluoro-2-(2-fluoro-4-iodo-phenylamino)-N-(2-hydroxy-ethoxy)-benzamide]: the half-life in series [1] and in series [2] was above 6 h throughout. Also, the values for the IC50 (in series [3]; on MEK) were 5.8 nM and 15 nM, respectively. Moreover, the solubility at 2 h in series [4] (setting [6]) was determined as 175 µM (≈ 99.6 µg/mL).

On to `CNC(=O)CCCO/N=C/c1cc(C(=O)NOCCO)c(Nc2ccc(I)cc2F)c(F)c1F` [Compound 44], for which the half-life in series [1] and in series [2] was above 6 h in each case. In addition, the IC50 in series [3] came out at 328 nM; on MEK, 25 nM. Besides, in series [4] (setting [6]), the solubility at 2 h was found to be 6 µM (≈ 3.57 µg/mL).

`C#Cc1ccc(Nc2c(C(=O)NOCCO)cc(/C=N/OCCO)c(F)c2F)c(F)c1` [Compound 2, (E)-2-(4-ethynyl-2-fluoro-phenylamino)-3,4-difluoro-N-(2-hydroxy-ethoxy)-5-[(2-hydroxy-ethoxyimino)-methyl]-benzamide]: the half-life turned out to be 1.34 h in series [1] and 2.25 h in series [2]. In addition, the IC50 came to 150 nM in series [3] and 240 nM against MEK. For the same compound, the “Water solubility (LySA PH 6.5)” value in series [4] (setting [6]) came to 415 µM.

`O=C(NOCC(O)CO)c1cc(/C=N\OCCO)c(F)c(F)c1Nc1ccc(I)cc1F` (racemic) [Compound 58, dl-(Z)—N-(2,3-dihydroxy-propoxy)-3,4-difluoro-2-(2-fluoro-4-iodo-phenylamino)-5-[(2-hydroxy-ethoxyimino)-methyl]-benzamide]: the half-life in series [1] amounted to 0.91 h; in series [2] it was 0.79 h. Further, the IC50 in series [3] was found to be 37 nM; against MEK it was 27 nM. In series [4] (setting [6]), the solubility at 2 h is 127 µM (≈ 72.3 µg/mL).

For the compound `O=C(NOCCO)c1cc(/C=N/OCc2ncc[nH]2)c(F)c(F)c1Nc1ccc(I)cc1F` [Compound 28, (E)-3,4-difluoro-2-(2-fluoro-4-iodo-phenylamino)-N-(2-hydroxy-ethoxy)-5-[(1H-imidazol-2-ylmethoxyimino)-methyl]-benzamide], the half-life in series [1] and in series [2] was above 6 h each time. Moreover, the IC50 is 50 nM in series [3] and 20 nM against MEK. For the same compound, the solubility at 2 h in series [4] (setting [6]) is below 31.3 µM.

Regarding `CNC(=O)CO/N=C\c1cc(C(=O)NOCCO)c(Nc2ccc(I)cc2F)c(F)c1F` [Compound 56, (Z)-3,4-Difluoro-2-(2-fluoro-4-iodo-phenylamino)-N-(2-hydroxy-ethoxy)-5-(methylcarbamoylmethoxyimino-methyl)-benzamide], the values for the half-life in series [1] and in series [2] were above 6 h and 0.645 h, respectively. The results for the IC50 (in series [3]; at MEK) were 3.4 nM and 49 nM, respectively. Also, the solubility at 2 h in series [4] (setting [6]) was 85 µM (≈ 48.1 µg/mL).

As for `CC(=O)NCCO/N=C\c1cc(C(=O)NOCCO)c(Nc2ccc(I)cc2F)c(F)c1F` [Compound 54, (Z)-5-[(2-Acetylamino-ethoxyimino)-methyl]-3,4-difluoro-2-(2-fluoro-4-iodo-phenylamino)-N-(2-hydroxy-ethoxy)-benzamide], the half-life in series [1] and in series [2] was above 6 h each time. Further, the IC50 in series [3] stood at 6.5 nM; against MEK, 21 nM. In addition, the solubility at 2 h in series [4] (setting [6]) was determined as 20 µM (≈ 11.6 µg/mL).

In the case of `O=C(NOCCO)c1cc(/C=N/O)c(F)c(F)c1Nc1ccc(I)cc1F` [Compound 3, (E)-3,4-difluoro-2-(2-fluoro-4-iodo-phenylamino)-N-(2-hydroxy-ethoxy)-5-(hydroxyiminomethyl)-benzamide], the half-life in series [1] was 1.55 h; in series [2], 0.97 h. The IC50 in series [3] came out at 65 nM; on MEK, 78 nM. The solubility at 2 h in series [4] (setting [6]) was found to be 6.4 µM (≈ 3.17 µg/mL).

Regarding `CC(=O)NCCO/N=C/c1cc(C(=O)NOCCO)c(Nc2ccc(I)cc2F)c(F)c1F` [Compound 24, (E)-5-[(2-acetylamino-ethoxyimino)-methyl]-3,4-difluoro-2-(2-fluoro-4-iodo-phenylamino)-N-(2-hydroxy-ethoxy)-benzamide], the half-life in series [1] and in series [2] was above 6 h in each case. Moreover, the IC50 was determined as 86 nM in series [3] and 48 nM on MEK. Also, the “Water solubility (LySA PH 6.5)” value in series [4] (setting [6]) stood at 16 µM.

As for `O=C(NOCC1CC1)c1ccc(F)c(F)c1Nc1ccc(I)cc1Cl` [CI-1040, reference compound], the half-life in series [1] amounted to 0.482 h. In addition, in series [5], the “differences in pharmacokinetic parameters between patients” value was “large differences” and the in vivo inactivation result was “quick in vivo inactivation by hydrolysis”. The half-life in series [2] was 0.18 h. Moreover, in series [3], the IC50 is 100 nM.

Consider `C#Cc1ccc(Nc2c(C(=O)NOCCO)cc(/C=N\OCCO)c(F)c2F)c(F)c1` [Compound 48, (Z)-2-(4-ethynyl-2-fluoro-phenylamino)-3,4-difluoro-N-(2-hydroxy-ethoxy)-5-[(2-hydroxy-ethoxyimino)-methyl]-benzamide], for which the half-life in series [1] turned out to be 0.603 h; in series [2], 2.03 h. Moreover, the IC50 in series [3] came out at 13 nM; against MEK, 51 nM. Also, the solubility at 2 h in series [4] (setting [6]) came out at 301 µM (≈ 132 µg/mL).
